Measured values published in patent US20020052365A1, “Selective anxiolytic therapeutic agents” (priority 2000, published 2002).
Entries after “also recorded” stand apart in the source; their conditions may differ.

Experiments:
[1] = system: GABAA receptors in hippocampal pyramidal cells from α2(H101R) mice; assay: Patch-clamp GABA responses in cultured hippocampal pyramidal cells, α2(H101R); format: cell-based, mouse
Description: (§1) FIGS. 2A-C. […] The holding potential in the patch-clamp analysis was −60 mV the chloride concentration symmetrical. GABA was applied for 5 sec. Hippocampal neurons from E16.5 embryos were cultured for 10-14 days.

[2] = molecular target: diazepam-insensitive [3H]Ro15-4513 binding sites in α3(H126R) mice; assay: [3H]Ro15-4513 binding to diazepam-insensitive sites, α3(H126R) mouse brain; settings: n=3
[3] = molecular target: diazepam-insensitive [3H]Ro15-4513 binding sites in α2(H101R) mice; assay: [3H]Ro15-4513 binding to diazepam-insensitive sites, α2(H101R) mouse brain; settings: n=3
[4] = molecular target: diazepam-insensitive [3H]Ro15-4513 binding sites (α4 and α6 GABAA receptors); assay: [3H]Ro15-4513 binding to diazepam-insensitive sites, wild type mouse brain; settings: n=3
[5] = system: recombinant α2(H101R)β3γ2 receptors; settings: recombinant α2(H101R)β3γ2 in HEK-293 cells; cited from earlier work
[6] = system: GABAA receptors in hippocampal pyramidal cells from wild type mice; assay: Patch-clamp GABA responses in cultured hippocampal pyramidal cells, wild type; format: cell-based, mouse
Description: as §1

[7] = molecular target: T1, α2 subunits from α2(H101R) mice (Mus musculus, UniProt P22723+P26048, H129R); assay: Diazepam affinity by [3H]Ro15-4513 binding after immunoprecipitation with α2 subunit-specific antiserum; settings: immunoprecipitated
T1 construct: from tissue; host or cells: brain of α2(H101R) knock-in mice
T1 sequence (P26048 29-451 H129R): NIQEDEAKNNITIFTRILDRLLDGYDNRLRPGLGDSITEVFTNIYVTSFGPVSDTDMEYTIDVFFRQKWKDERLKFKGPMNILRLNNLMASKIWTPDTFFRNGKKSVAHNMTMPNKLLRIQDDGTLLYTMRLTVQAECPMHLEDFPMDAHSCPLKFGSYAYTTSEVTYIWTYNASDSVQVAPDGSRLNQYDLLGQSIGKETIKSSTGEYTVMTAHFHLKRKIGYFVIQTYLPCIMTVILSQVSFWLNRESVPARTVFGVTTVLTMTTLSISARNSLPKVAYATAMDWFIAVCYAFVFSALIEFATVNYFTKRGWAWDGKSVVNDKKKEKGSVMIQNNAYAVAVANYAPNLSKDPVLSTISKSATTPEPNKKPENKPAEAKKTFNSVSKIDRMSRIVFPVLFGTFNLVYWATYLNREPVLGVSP
T1 sequence (P22723 39-474): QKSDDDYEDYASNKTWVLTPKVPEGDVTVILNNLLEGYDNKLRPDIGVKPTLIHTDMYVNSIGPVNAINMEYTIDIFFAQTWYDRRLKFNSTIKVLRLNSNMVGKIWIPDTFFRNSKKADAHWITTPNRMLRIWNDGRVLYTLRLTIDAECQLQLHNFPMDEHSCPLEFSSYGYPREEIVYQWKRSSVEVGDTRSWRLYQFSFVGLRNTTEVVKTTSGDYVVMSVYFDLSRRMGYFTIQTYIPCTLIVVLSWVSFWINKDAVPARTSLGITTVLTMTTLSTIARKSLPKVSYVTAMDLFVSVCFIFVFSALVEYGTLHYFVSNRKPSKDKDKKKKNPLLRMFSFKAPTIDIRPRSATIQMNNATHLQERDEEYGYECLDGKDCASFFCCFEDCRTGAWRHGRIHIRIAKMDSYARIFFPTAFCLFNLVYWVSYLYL
T1 sequence (P63080 26-473 partner): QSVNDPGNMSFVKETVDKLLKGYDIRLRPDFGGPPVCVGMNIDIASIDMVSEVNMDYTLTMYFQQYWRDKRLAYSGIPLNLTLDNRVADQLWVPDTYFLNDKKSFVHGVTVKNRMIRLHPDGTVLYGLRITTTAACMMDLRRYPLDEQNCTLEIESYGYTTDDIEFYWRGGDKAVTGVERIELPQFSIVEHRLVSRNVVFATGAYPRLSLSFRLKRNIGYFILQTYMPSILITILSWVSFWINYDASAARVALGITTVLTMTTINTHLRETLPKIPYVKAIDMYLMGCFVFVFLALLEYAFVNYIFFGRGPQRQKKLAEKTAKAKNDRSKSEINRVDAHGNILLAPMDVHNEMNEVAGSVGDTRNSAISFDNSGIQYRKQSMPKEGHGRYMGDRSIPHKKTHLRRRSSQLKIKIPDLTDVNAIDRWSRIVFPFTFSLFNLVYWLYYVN
Excerpt: (§2) To distinguish between the pharmacology of α2 and α3 receptor subtypes, two mouse lines were generated in which a point mutation was introduced into homologous positions of the α2 subunit gene [α2(H101R)]

[8] = system: wild type and α1-GABAA receptor (H101R) mice; assay: Withdrawal after chronic diazepam and flumazenil administration; settings: chronic diazepam then flumazenil
[9] = system: wild type, α2(H101R) and α3(H126R) mice; assay: Locomotor activity; format: in vivo, mouse; settings: diazepam 3, 10, 30 mg/kg p.o., 30 min prior
Description: (§3) V, vehicle. […] 31:733. Locomotor activity was automatically recorded for 30 min.

[10] = system: wild type, α2(H101R) and α3(H126R) mice; assay: Elevated plus-maze; format: in vivo, mouse; settings: diazepam 2 mg/kg p.o.
Description: (§4) FIG. 4A: Light/dark choice test. […] FIGS. 4B-C: Elevated plus-maze. […] FIG. 4D: Light/dark choice test. […] FIGS. 4E-F: Elevated plus-maze. […] Results are given as means ±S.E.M.+, P<0.05;++, P<0.01;+++P<0.001 (Dunnett's or Fisher's pair-wise post-hoc comparisons or Fisher's exact tests). […] The light-dark choice test was carried out as described infra with an illumination of 500 lux. […] The elevated plus-maze was performed as described infra under an indirect dim light illumination (<10 lux).
Mice were placed on an elevated crossbar with two walled and two open arms under indirect dim illumination. […] The time spent on the open arms and the number of open arm entries was recorded for 5 minutes.
(§5) Female wild-type and mutant mice were raised in the test rooms and behaviorally tested during the dark period of the 1 2-hr light/dark cycle.

[11] = system: wild type, α2(H101R) and α3(H126R) mice; assay: Pentylenetetrazole test; format: in vivo, mouse; settings: pentylenetetrazole 120 mg/kg ip, diazepam 3, 10, 30 mg/kg p.o.
Description: as §3
Following pentylenetetrazole treatment (120 mg/kg ip), occurrence and/or latency to tonic seizures was recorded for a maximum of 10 minutes in wild type and mutant mice. […].

[12] = system: wild type, α2(H101R) and α3(H126R) mice; assay: Light/dark choice test; format: in vivo, mouse; settings: for time in the lit area: sodium phenobarbital 15 mg/kg s.c., n=6-8
Description: as §4
In a chamber containing an interconnected dark and lit (500 lux) box, the behavior of wild-type and mutant mice was tested for 5 min following the first entry into the dark compartment. […] The time spent in the lit box was recorded.
as §5

[13] = molecular target: T2, α3 subunits from α3(H126R) mice (Mus musculus, UniProt P22723+P26049, H154R); assay: Diazepam affinity by [3H]Ro15-4513 binding after immunoprecipitation with α3 subunit-specific antiserum; settings: immunoprecipitated
T2 construct: from tissue; host or cells: brain of α3(H126R) knock-in mice
T2 sequence (P26049 29-492 H154R): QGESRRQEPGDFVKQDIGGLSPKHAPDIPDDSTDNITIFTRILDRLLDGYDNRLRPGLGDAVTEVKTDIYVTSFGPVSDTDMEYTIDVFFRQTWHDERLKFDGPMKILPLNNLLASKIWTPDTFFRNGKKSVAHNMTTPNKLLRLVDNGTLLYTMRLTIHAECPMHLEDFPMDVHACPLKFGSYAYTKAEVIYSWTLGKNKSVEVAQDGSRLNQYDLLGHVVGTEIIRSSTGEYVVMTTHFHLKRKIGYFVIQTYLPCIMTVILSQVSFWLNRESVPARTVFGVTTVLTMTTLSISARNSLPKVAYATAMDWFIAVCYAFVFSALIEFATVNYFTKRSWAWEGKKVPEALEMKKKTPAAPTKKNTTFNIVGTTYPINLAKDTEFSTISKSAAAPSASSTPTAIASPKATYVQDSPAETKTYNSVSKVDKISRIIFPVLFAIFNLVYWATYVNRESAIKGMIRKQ
T2 sequence (P22723 39-474): as the sequence (P22723 39-474) above
T2 sequence (P63080 26-473 partner): as the sequence (P63080 26-473 partner) above
Excerpt: as §2

## CCOC(=O)c1ncn2c1CN(C)C(=O)c1cc(N=[N+]=[N-])ccc1-2 [Ro15-4513]
[1]; Ro15-4513 1μM, n=23
  modulation of GABA response by Ro15-4513 (agonistic response): 11.7±7.5%
[2]
  Kd: 6.5 ± 1.6 nM
[3]
  Kd: 8 ± 1.3 nM
[4]; α2 wild type controls
  Kd: 4.3 ± 0.8 nM
[4]; α3 wild type controls
  Kd: 4.9 ± 2.1 nM
[5]
  efficacy of Ro15-4513: from inverse agonism to agonism
[6]; Ro15-4513 1μM, n=13
  modulation of GABA response by Ro15-4513 (inverse agonistic action): −39±5.2%

## CN1C(=O)CN=C(c2ccccc2)c2cc(Cl)ccc21 [diazepam]
[7]
  decrease in the affinity for diazepam: more than 1,000 fold
[1]; diazepam 1μM, GABA 3 μM, n=29
  potentiation of GABA response by diazepam: 17.6±4.5%
[8]; wild type mice
  withdrawal symptoms (locomotor activity): exhibited withdrawal symptoms
[8]; α1-GABAA receptor (H101R) mice
  withdrawal symptoms (locomotor activity): greatly reduced
[9]
  locomotor activity (sedative action): Dose-dependent inhibition of locomotor activity
[10]; wild type mice
  entries on the open arms: increased
  percentage of time spent on the open arms: increased
[10]; α2(H101R) mice
  entries on the open arms: failed to increase
  percentage of time spent on the open arms: failed to increase
[10]; α3(H126R) mice
  entries on the open arms: increased
  percentage of time spent on the open arms: increased
[6]; diazepam 1μM, GABA 3 μM, n=18
  potentiation of GABA response by diazepam: 48.1±7.9%
[11]; wild type mice
  percentage of mice developing tonic convulsions (anticonvulsant action): Dose-dependent decrease of the percentage of mice developing tonic convulsions
[11]; α2(H101R) mice
  percentage of mice developing tonic convulsions (anticonvulsant action): not impaired; also recorded: Dose-dependent decrease of the percentage of mice developing tonic convulsions
[11]; α3(H126R) mice
  percentage of mice developing tonic convulsions (anticonvulsant action): not impaired; also recorded: Dose-dependent decrease of the percentage of mice developing tonic convulsions
[12]; wild type mice, diazepam 0.5, 1, 2 mg/kg p.o.
  time spent in the lit area: dose-dependently increased the time spent in the lit area
[12]; α2(H101R) mice, diazepam up to 2 mg/kg p.o.
  time spent in the lit area: did not increase the time spent in the lit area
[12]; α3(H126R) mice, diazepam 0.5, 1, 2 mg/kg p.o.
  time spent in the lit area: Dose-dependent increase in the time spent in the lit area
[13]
  decrease in the affinity for diazepam: more than 1,000 fold

## CCC1(c2ccccc2)C(=O)NC(=O)NC1=O [phenobarbital, Sodium phenobarbital]
[12]; wild type mice
  time in the lit area: 111.75 s
[12]; α2(H101R) mice
  time in the lit area: 110.9 s
